10 molecules from patent publication US10617690B2 (priority 2015, dated 2020) can be followed below.

One data set has as its target JAK1 protein kinase (Homo sapiens, UniProt P23458). Nature of the data set: biochemical. The note with it: 38 uM ATP, 90 min. On the procedure:
In Vitro Activity Test of Jak1, Jak 2 and Jak 3 Kinase
Recombinant humanized JAK1, JAK2 and JAK3 […] were all purchased from Life technology. LANCE Ultra ULight™-JAK-1(Tyr1023) peptide and LANCE Eu-W1024 Anti-phosphotyrosine (PT66) were both purchased from PerkinElmer. Envision (PerkinElmer) was used to read a plate.
Three dilution of a test compound was prepared, and 11 final concentrations were obtained: 10 uM to 0.17 nM. Each concentration had two repeat wells. The content of DMSO in a detection reaction was 1%.
2 nM JAK1 protein kinase, 50 nM LANCE Ultra ULight™-JAK-1(Tyr1023) peptide, 38 uM ATP, 50 mM HEPES (pH7.5), 10 mM MgCl2, 1 mM EGTA, 2 mM DTT, and 0.01% BRIJ-35. Detection plate was White Proxiplate 384-Plus plate (PerkinElmer), the reaction was conducted for 90 min at room temperature, and reaction system was 10 ul.
10 ul detection reagent was added into the reaction plate, wherein the final concentration of LANCE Eu-W1024 Anti-phosphotyrosine (PT66) was 2 nM, the final concentration of EDTA was 10 mM, incubation was conducted for 60 min at room temperature, and the plate was read by the Envision.
The reading was converted into a suppression ratio as follow equation: (%)=([…])/(Max−Min)*100%. IC50 data was detected by 4 parametric curve fitting (Model 205 in XLFIT5, iDBS), see Table 1.

The target in a further data set is JAK2 protein kinase (Homo sapiens, UniProt O60674). Nature of the data set: biochemical. The conditions noted are these: 12 uM ATP, 60 min.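 Further: recombinant human JAK2 with ULight-labelled JAK-1(Tyr1023) peptide substrate, phosphorylation detected by TR-FRET using Eu-labelled anti-phosphotyrosine antibody, 1% DMSO.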
Data set [1] has as its system arthritis model induced by collagen. The note with it: oral, two consecutive weeks.
A further data set concerns the target T1, JAK3 (Homo sapiens, UniProt P52333).
T1 construct: purchased Life technology
T1 sequence (P52333 1-1124): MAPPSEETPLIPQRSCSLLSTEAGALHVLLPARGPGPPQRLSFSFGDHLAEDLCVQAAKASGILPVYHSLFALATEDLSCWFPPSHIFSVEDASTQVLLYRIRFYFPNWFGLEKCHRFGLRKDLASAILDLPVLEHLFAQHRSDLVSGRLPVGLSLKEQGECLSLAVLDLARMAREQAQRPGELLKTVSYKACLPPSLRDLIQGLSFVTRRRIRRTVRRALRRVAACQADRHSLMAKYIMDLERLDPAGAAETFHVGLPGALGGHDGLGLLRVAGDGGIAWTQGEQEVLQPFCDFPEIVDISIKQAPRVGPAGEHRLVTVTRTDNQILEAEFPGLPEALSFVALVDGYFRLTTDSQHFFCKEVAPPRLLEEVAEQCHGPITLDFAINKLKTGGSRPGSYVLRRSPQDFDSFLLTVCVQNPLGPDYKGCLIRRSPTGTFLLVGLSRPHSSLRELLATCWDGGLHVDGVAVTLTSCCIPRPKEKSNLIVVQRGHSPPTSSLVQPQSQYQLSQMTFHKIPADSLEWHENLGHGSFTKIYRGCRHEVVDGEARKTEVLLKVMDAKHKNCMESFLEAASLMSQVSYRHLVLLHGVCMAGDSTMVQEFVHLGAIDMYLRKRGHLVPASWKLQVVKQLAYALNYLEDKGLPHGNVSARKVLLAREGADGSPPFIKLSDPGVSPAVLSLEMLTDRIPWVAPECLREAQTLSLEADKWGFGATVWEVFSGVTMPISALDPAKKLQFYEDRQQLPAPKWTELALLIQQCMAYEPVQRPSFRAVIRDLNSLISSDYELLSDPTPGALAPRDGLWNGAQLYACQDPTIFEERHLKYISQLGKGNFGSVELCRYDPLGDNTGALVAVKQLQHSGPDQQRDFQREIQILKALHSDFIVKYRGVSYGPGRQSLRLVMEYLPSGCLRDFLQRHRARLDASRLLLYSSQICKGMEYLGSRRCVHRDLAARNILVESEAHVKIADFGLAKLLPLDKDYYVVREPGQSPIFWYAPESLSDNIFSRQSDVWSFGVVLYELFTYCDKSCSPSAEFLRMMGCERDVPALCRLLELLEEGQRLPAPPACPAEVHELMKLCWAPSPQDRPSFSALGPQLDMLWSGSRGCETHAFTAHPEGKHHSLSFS
Put plainly: In vitro activity test of JAK3 kinase (LANCE Ultra TR-FRET).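 Further: recombinant human JAK3 phosphorylating ULight-JAK-1(Tyr1023) peptide at 4 µM ATP, with 1% DMSO, detected by Eu-anti-phosphotyrosine TR-FRET on Envision and converted to percent inhibition.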 It counts as biochemical. For orientation: Time-resolved FRET reads energy transfer from a long-lived donor to a nearby acceptor.

A short description of data set [2]: Pharmacokinetics (PK) test in rats. It counts as in vivo. The conditions noted are these: for AUC(0-inf) / AUC(0-t) / half-life / Vd / Cmax / Tmax / bioavailability: rat, plasma; for Vd: intravenous, read-out: Vdss; for Cmax / Tmax / bioavailability: oral.
The test system of data set [3] is arthritis model induced by adjuvant. Nature of the data set: Pharmacodynamic test of an arthritis model induced by adjuvant on rats. It counts as in vivo, female Lewis rat. The conditions noted are these: oral; for AUC (%): two consecutive weeks; for arthritis inhibitory activity and dose-effect relationship: 1, 3 and 10 mpk.
Data set [4] can be described thus: Pharmacokinetics (PK) test in mice. It counts as in vivo, male DBA/1 mice. The note with it: for AUC(0-inf) / AUC(0-t) / Vd / Cmax / Tmax / bioavailability / half-life: male, DBA/1, mouse, plasma; for Vd: read-out: Vdss; for Cmax / Tmax / bioavailability: oral; for half-life: caudal vein injection and gavage.

Read-outs that look alike come from different tables or passages of the source. Bounds are passed on as bounds.

Sequence of JAK2 protein kinase (O60674 whole entry): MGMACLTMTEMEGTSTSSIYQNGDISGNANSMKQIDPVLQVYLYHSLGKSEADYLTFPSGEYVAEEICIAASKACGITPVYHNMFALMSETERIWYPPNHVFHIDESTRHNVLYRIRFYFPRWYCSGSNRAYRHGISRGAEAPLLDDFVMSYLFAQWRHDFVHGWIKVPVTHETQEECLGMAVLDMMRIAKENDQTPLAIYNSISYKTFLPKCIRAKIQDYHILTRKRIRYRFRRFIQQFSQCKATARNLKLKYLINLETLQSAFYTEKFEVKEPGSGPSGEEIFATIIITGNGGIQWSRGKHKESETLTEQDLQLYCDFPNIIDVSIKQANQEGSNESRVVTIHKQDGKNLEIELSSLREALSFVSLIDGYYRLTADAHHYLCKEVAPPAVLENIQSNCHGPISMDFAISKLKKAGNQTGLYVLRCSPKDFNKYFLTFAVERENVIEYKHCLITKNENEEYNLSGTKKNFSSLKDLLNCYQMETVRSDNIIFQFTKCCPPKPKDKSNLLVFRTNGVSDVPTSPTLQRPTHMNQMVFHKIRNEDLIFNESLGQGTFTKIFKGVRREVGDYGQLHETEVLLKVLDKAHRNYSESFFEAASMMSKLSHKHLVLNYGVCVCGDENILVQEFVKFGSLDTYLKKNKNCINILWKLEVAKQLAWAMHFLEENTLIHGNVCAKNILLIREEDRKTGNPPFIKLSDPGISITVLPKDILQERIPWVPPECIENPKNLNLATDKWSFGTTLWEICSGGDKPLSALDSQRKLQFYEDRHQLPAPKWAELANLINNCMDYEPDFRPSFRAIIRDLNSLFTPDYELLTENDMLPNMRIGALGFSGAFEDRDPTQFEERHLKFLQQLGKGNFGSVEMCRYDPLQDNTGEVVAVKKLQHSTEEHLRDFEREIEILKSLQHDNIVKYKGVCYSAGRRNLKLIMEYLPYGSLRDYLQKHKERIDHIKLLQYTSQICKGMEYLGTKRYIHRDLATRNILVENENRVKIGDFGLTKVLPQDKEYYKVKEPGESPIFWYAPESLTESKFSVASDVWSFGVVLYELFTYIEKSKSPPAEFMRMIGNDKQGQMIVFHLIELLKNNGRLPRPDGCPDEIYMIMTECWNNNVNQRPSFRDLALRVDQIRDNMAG
Sequence of JAK1 protein kinase (P23458 whole entry): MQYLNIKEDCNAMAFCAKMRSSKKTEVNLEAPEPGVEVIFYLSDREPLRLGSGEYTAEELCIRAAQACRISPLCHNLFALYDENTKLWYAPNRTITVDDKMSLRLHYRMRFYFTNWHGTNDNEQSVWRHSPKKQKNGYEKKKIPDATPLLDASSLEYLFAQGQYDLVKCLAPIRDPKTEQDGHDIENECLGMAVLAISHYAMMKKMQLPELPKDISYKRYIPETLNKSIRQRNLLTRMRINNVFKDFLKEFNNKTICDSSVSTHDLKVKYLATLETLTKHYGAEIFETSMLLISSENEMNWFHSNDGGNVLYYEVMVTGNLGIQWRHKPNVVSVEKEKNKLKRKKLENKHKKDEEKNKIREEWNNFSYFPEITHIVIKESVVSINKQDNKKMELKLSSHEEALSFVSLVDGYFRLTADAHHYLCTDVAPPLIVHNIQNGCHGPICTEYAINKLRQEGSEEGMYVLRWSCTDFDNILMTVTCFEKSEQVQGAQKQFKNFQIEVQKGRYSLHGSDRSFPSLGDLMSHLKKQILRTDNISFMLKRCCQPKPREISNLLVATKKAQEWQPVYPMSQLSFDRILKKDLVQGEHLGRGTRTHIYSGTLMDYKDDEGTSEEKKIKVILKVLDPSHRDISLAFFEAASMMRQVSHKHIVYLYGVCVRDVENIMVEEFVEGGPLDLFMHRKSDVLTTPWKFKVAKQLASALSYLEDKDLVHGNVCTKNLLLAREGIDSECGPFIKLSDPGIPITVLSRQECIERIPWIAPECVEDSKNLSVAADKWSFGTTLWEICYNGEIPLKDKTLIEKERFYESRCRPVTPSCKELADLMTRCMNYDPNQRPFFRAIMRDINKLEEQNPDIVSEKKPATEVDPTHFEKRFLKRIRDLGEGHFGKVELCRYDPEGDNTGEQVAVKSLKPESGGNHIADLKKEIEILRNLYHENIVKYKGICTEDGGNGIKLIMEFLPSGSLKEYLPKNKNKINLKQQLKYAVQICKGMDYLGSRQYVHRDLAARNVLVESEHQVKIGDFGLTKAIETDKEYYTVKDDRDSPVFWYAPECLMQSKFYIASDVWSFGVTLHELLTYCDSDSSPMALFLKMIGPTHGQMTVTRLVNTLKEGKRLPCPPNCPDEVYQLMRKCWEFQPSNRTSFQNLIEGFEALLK
Source text for JAK2 protein kinase: (§1) Recombinant humanized JAK1, JAK2 and JAK3 protease were all purchased from Life technology. LANCE Ultra ULight™-JAK-1(Tyr1023) peptide and LANCE Eu-W1024 Anti-phosphotyrosine (PT66) were both purchased from PerkinElmer. Envision (PerkinElmer) was used to read a plate.
(§2) The reading was converted into a suppression ratio as follow equation: (%)=(Min−Ratio)/(Max−Min)*100%.
Procedure for JAK3: as §1
0.05 nM protein kinase, 50 nM LANCE Ultra ULight™-JAK-1(Tyr1023) peptide, 4 uM ATP, 50 mM HEPES (pH7.5), 10 mM MgCl2, 1 mM EGTA, 2 mM DTT, and 0.01% BRIJ-35.
as §2

In general, IC50 refers to the midpoint of a concentration-inhibition curve. With `CN(c1ncnc2[nH]ccc12)N1CCCC(C(=O)NCC(F)(F)F)C1` (stereo not shown) [WX04], the IC50 is below 10 nM at JAK1 protein kinase, 10 to 100 nM on JAK2 protein kinase and 10 to 100 nM on JAK3. The results for the “AUC (%)” value in data set [1] (15 mg/kg) and in data set [1] (30 mg/kg) were 29% and 27%, respectively.

As usually defined, the AUC(0-inf) is total exposure, with the tail of the curve extrapolated. A word on the AUC(0-t): it is the area under the concentration-time curve up to a stated or last time point. A high value points to more exposure. As a reminder, the half-life is the time needed for the level to fall by half in the phase considered. Read a high half-life as slow loss. For orientation: Cmax means the peak of the concentration-time curve. In general, Tmax refers to the time from dosing to the highest level. A word on the bioavailability: it is dose-corrected exposure relative to a reference, in per cent. Low values mean poor availability, high ones good availability. Consider `CN(c1ncnc2[nH]ccc12)N1CCC[C@@H](C(=O)NCC#N)C1` (single isomer, unassigned) [WX08, (R or S)—N-(cyanomethyl-1-[methyl(7H-pyrrolo[2,3-d]pyrimidin-4-yl)amino]piperidyl)-3-formamide], for which, on JAK1 protein kinase, the IC50 was below 10 nM. Further, the IC50 on JAK2 protein kinase was below 10 nM. In data set [2], the C1 is 27.1 mL/min/kg; the “oral bioavailability and exposed quantity” value was “excellent good oral bioavailability and higher exposed quantity”; the area under the curve AUC(0-inf) stood at 6.5 µM·h; the AUC(0-t) turned out to be 6.36 µM·h. Also, in data set [2], the half-life is 56.9 min, the Vd was 1.51 L/kg, the Cmax came to 2460 nM and the Tmax was determined as 30 min. In data set [2], this molecule yielded a bioavailability of 61%. Also, the “AUC (%)” value in data set [3] (1 mg/kg) worked out at 13.6%. In addition, the “AUC (%)” value in data set [3] (3 mg/kg) is given as 33.4%. Besides, the “AUC (%)” value in data set [3] (10 mg/kg) is recorded as 49.2%. Besides, the “arthritis inhibitory activity and dose-effect relationship” value in data set [3] is “good dose-effect relationship and generated arthritis inhibitory activity that was more effective than Filgotinib”. The IC50 against JAK3 is below 10 nM. In data set [4], the C1 amounted to 26.7 mL/min/kg; the “oral bioavailability and exposed quantity” value was “excellent good oral bioavailability and higher exposed quantity”; the AUC(0-inf) amounted to 3.03 µM·h; the AUC(0-t) was 3 µM·h. Also, in data set [4], the concentration peaked (Cmax) at 2440 nM, the time to peak (Tmax) turned out to be 15 min and the bioavailability is 50.7%. Also, the Vd in data set [4] (intravenous) turned out to be 0.619 L/kg. Moreover, the half-life in data set [4] (po) is 37.4 min.

`CN(c1ncnc2[nH]ccc12)N1CCCC(C(=O)NCC#N)C1` (stereo not shown) [WX07, N-(cyanomethyl)-1-[methyl(7H-pyrrolo[2,3-d]pyrimidin-4-yl)amino]piperidyl-3-formamide]: on JAK1 protein kinase, the IC50 was below 10 nM. On JAK2 protein kinase, this molecule yielded an IC50 of 10 to 100 nM. The “AUC (%)” value in data set [1] (15 mg/kg) stood at 52.2%. Also, in data set [2], the C1 is on record as 31.8 mL/min/kg; the “oral bioavailability and exposed quantity” value is “excellent good oral bioavailability and higher exposed quantity”; the AUC(0-inf) amounted to 5.75 µM·h; the AUC(0-t) is 5.68 µM·h. In data set [2], the half-life was 70.8 min, the Vd is 1.76 L/kg, the peak level (Cmax) was 3250 nM and the Tmax came out at 20 min. This molecule also returned a bioavailability in data set [2] of 68.6%. For the same molecule, the “AUC (%)” value in data set [3] (1 mg/kg) stood at 1.5%. The “AUC (%)” value in data set [3] (3 mg/kg) turned out to be 20.4%. Besides, in data set [3] (10 mg/kg), the “AUC (%)” value was found to be 44.7%. For the same molecule, the “arthritis inhibitory activity and dose-effect relationship” value in data set [3] was “good dose-effect relationship and arthritis inhibitory activity equivalent to Tofacitinib”. For the same molecule, the concentration for half-maximal inhibition (IC50) at JAK3 is below 10 nM. For the same molecule, in data set [4], the C1 is reported as 21.3 mL/min/kg; the “oral bioavailability and exposed quantity” value is “excellent good oral bioavailability and higher exposed quantity”; the total exposure AUC(0-inf) was determined as 2.48 µM·h; the AUC(0-t) came to 2.33 µM·h. In addition, in data set [4], the concentration peaked (Cmax) at 2290 nM, the time of peak concentration (Tmax) came out at 30 min and the bioavailability is 32.9%. The Vd in data set [4] (intravenous) was 0.846 L/kg. Moreover, the half-life in data set [4] (po) is 81 min.

As to `C[C@@H]1CCN(C(=O)CC#N)C[C@@H]1N(C)c1ncnc2[nH]ccc12` [Tofacitinib, reference compound], the “AUC (%)” value in data set [1] (15 mg/kg) is 34%; in data set [3] (1 mg/kg), 19.8%; in data set [3] (3 mg/kg) it was 41.6%; in data set [3] (10 mg/kg), 49.2%.

In the case of `O=C(Nc1nc2cccc(-c3ccc(CN4CCS(=O)(=O)CC4)cc3)n2n1)C1CC1` [Filgotinib, reference compound], the “AUC (%)” value in data set [1] (15 mg/kg) was 39.9%; in data set [3] (3 mg/kg) it was 7.9%.

Molecule `CN(c1ncnc2[nH]ccc12)N1CCC[C@@H](C(=O)NCC(F)(F)F)C1` (single isomer, unassigned) [WX05, (R or S)-1-[methyl(7H pyrrolo[2,3-d]pyrimidin-4-yl)amino]-N-(2,2,2-trifluoroethyl)piperidyl-3-formamide] registered an IC50 at JAK1 protein kinase below 10 nM. For the same molecule, at JAK2 protein kinase, the IC50 fell in the range of 10 to 100 nM. For the same molecule, the “AUC (%)” value in data set [1] (15 mg/kg) is given as 31%. In addition, in data set [2], the C1 was determined as 13.1 mL/min/kg; the “oral bioavailability and exposed quantity” value was “excellent good oral bioavailability and higher exposed quantity”; the AUC(0-inf) was 11.5 µM·h; the exposure AUC(0-t) was 11.2 µM·h. Also, in data set [2], the half-life was 91.8 min, the Vd worked out at 1.49 L/kg, the Cmax stood at 3690 nM and the Tmax is 60 min. This molecule came in with a bioavailability in data set [2] of 64.4%. The molecule further registered an IC50 against JAK3 below 10 nM. For the same molecule, in data set [4], the C1 is reported as 57.2 mL/min/kg; the “oral bioavailability and exposed quantity” value was “excellent good oral bioavailability and higher exposed quantity”; the AUC(0-inf) is 0.667 µM·h; the area under the curve AUC(0-t) worked out at 0.664 µM·h. For the same molecule, in data set [4], the Cmax was found to be 1230 nM, the time of peak concentration (Tmax) amounted to 15 min and the bioavailability is 27%. Besides, in data set [4] (intravenous), the half-life is 30.9 min and the Vd amounted to 0.959 L/kg.

As for `CN(c1ncnc2[nH]ccc12)N1CCCC(C(=O)NCC(F)(F)F)C1` (single isomer, unassigned) [WX06, (S or R)-1-[methyl(7H pyrrolo[2,3-d]pyrimidin-4-yl)amino]-N-(2,2,2-trifluoroethyl)piperidyl-3-formamide], the IC50 on JAK1 protein kinase is 100 to 1000 nM; on JAK2 protein kinase, above 1000 nM; on JAK3 it was above 1000 nM. For the same molecule, the “AUC (%)” value in data set [1] (15 mg/kg) turned out to be 30.3%.

For `O=C(NCC(F)(F)F)C1CCCN(N(c2ncnc3[nH]ccc23)C2CC2)C1` (stereo not shown) [WX58, 1-[cyclopropyl(7H-pyrrolo[2,3-d]pyrimidin-4-yl)amino]-N-(2,2,2-trifluoroethyl)piperidyl-3-formamide], the 50% inhibitory concentration (IC50) against JAK1 protein kinase lay within 10 to 100 nM; against JAK2 protein kinase it was 100 to 1000 nM; at JAK3 it was 100 to 1000 nM.

Take `CN(c1ncnc2[nH]ccc12)N1CCC[C@H](C(=O)NCC(F)F)C1` (single isomer, unassigned) [WX50, (3S or 3R)-1-[methyl(7H-pyrrole[2,3-d]pyrimidine-4-)amino]-N-(2,2-difluoroethyl)piperidyl-3-formamide]: the values for the IC50 on JAK1 protein kinase, at JAK2 protein kinase and on JAK3 were 100 to 1000 nM, above 1000 nM and 100 to 1000 nM, respectively.

`CN(c1ncnc2[nH]ccc12)N1CCCN(C(=O)CC(F)(F)F)CC1` [WX36]: the IC50 against JAK1 protein kinase is 100 to 1000 nM; on JAK2 protein kinase, above 1000 nM; against JAK3, above 1000 nM.
